# Where two headings read alike, the source gives them in different places.
# How the values were obtained:
# AB5075 [1] = assay: Broth microdilution MIC of compound alone (standalone toxicity); assay type: cell-based, Acinetobacter baumannii
# Experimental: (§1) Bacterial Strains and Antimicrobial Agents. Acinetobacter baumannii clinical isolate 5075 was obtained from Dr. Colin Manoil at the University of Washington. Colonies were grown on lysogeny broth (LB) agar. Cation-adjusted Mueller-Hinton Broth (CAMHB) (catalog number 212322) were purchased from BD Diagnostics. LB broth was purchased from Fisher Scientific (catalog number BP9722-2). […] Colistin sulfate salt (catalog number C4461) was purchased from Sigma Aldrich. All assays were completed in duplicate and repeated at least two separate times. All compounds were dissolved as their HCl salts in molecular biology grade DMSO as 10 or 100 mM stock solutions and stored at −20° C. Colistin was dissolved in sterile water while clarithromycin was dissolved in molecular biology grade DMSO.
# Broth microdilution method for MIC determination. Day cultures (6 h) of each bacterial strain in cation adjusted Mueller Hinton II broth (CAMHB, Fisher Scientific U.S.) were subcultured to 5×10^5 CFU/mL in CAMHB. Aliquots (1 mL) were placed in culture tubes and compound was added from 10 mM stock samples in DMSO, such that compound concentration equaled highest concentration tested (200 μM). Samples were then aliquoted (200 μL) into the first wells of a 96-well plate, with all remaining wells being filled with 100 μL of initial bacterial subculture. Row one wells were mixed five times, before 100 μL was transferred to row two. Row two was then mixed five times, and 100 μL was transferred to row three. This process was repeated until the final row had been mixed; this served to serially dilute the compound. Plates were then covered with GLAD Press n'Seal and incubated under stationary conditions at 37° C. for 16 h. MIC values were then recorded as the lowest concentration at which no bacterial growth was observed.
# AB5075 [2] = assay: Broth microdilution clarithromycin (CLR) potentiation and dose-response of adjuvant; assay type: cell-based, Acinetobacter baumannii; details: for adjuvant activity (CLR potentiation), rank by amide linker position: dosed at 30 μM
# Experimental: as §1
# Broth microdilution method for antibiotic potentiation. Day cultures (6 h) of bacteria in CAMHB were subcultured to 5×10^5 CFU/mL in CAMHB. Aliquots (4 mL) were placed in culture tubes and dosed with compound from 10 mM stock samples to give the desired concentration of the compound to be tested against the particular bacterial strain; this insured non-toxic DMSO concentrations ≤0.3% in each well. 1 mL of the resulting solution was placed in a separate culture and dosed with antibiotic at the highest concentration to be tested. Bacteria treated with antibiotic alone served as the control. Row one of a 96-well plate was filled with 200 μL of the antibiotic/2-AI solution, and rows 2-12 were filled with 100 μL each of the remaining 4 mL of bacterial subculture containing adjuvant at the desired concentration, except for the control lane which contained only bacterial subculture. Row one was then mixed five times, and 100 μL was transferred to row two, which was then mixed five times before being transferred to row three. This process was repeated until all rows had been mixed, except for row twelve which would have only 2-AI to serve as a control to monitor potential toxicity. The 96-well plate was then covered in Glad Press n'Seal and incubated under stationary conditions at 37° C. for 16 h. MIC values were determined as the lowest concentration at which no bacterial growth was observed, and fold reductions were determined by comparison to antibiotic control lane.
# Dose-response of Adjuvant Assay. The procedure for ‘broth microdilution method for antibiotic potentiation’ was followed using 4 mL aliquots of adjuvant at various concentrations: 0, 5, 7.5, 10, 15, 20, 25, and 30 μM.
SMILES,MIC (AB5075 [1]; Acinetobacter baumannii) [µM],CLR MIC (AB5075 [2]; compound tested at 10 μM) [µg/mL],CLR MIC (AB5075 [2]; compound tested at 30 μM) [µg/mL],Fold Reduction of CLR MIC (AB5075 [2]; compound tested at 30 μM),CLR MIC (AB5075 [2]; compound tested at 20 μM) [µg/mL],further results
"Cl.Nc1nc(-c2ccc(NC(=O)c3ccc(C(F)(F)F)c(F)c3)cc2)c[nH]1 [Compound 4p, N-(4-(2-amino-1H-imidazol-4-yl)phenyl)-3-fluoro-4-(trifluoromethyl)benzamide hydrochloride]",50,1,,,,CLR MIC (AB5075 [2]; compound tested at 5 μM): 16 µg/mL; CLR MIC (AB5075 [2]; compound tested at 7.5 μM): 4 µg/mL; Fold Reduction of CLR MIC (AB5075 [2]; compound tested at 10 μM): 32 fold; CLR MIC (AB5075 [2]; compound tested at 15 μM): 0.5 µg/mL
"Cl.Nc1nc(-c2ccc(NC(=O)c3cccc(Cl)c3Cl)cc2)c[nH]1 [Compound 4q, N-(4-(2-amino-1H-imidazol-4-yl)phenyl)-2,3-dichlorobenzamide hydrochloride]",> 200,,8,four-fold,,
Cl.Nc1nc(-c2ccc(NC(=O)c3ccc(Cl)cc3Cl)cc2)c[nH]1 [Compound 4t],,,4,eight-fold,,MIC (AB5075 [1]): >200 µM
Cl.Nc1nc(-c2ccc(NC(=O)c3ccc(Br)cc3F)cc2)c[nH]1 [Compound 4u],,32,2,,16,MIC (AB5075 [1]): >200 µM
Cl.Nc1nc(-c2ccc(NC(=O)c3cc(I)c(I)c(I)c3)cc2)c[nH]1 [Compound 4w],,,32,,,MIC (AB5075 [1]): >200 µM
"Cl.Nc1nc(-c2ccc(NC(=O)c3c(F)c(F)c(F)c(F)c3F)cc2)c[nH]1 [Compound 4x, N-(4-(2-amino-1H-imidazol-4-yl)phenyl)-2,3,4,5,6-pentafluorobenzamide hydrochloride]",> 200,,4,,,
"Cl.Nc1nc(-c2ccc(NC(=O)c3cc(Cl)c(Br)c(Cl)c3)cc2)c[nH]1 [Compound 4y, N-(4-(2-amino-1H-imidazol-4-yl)phenyl)-4-bromo-3,5-dichlorobenzamide hydrochloride]",200,0.25,,,0.25,CLR MIC (AB5075 [2]; compound tested at 7.5 μM): 8 µg/mL; Fold Reduction of CLR MIC (AB5075 [2]; compound tested at 10 μM): 128 fold
"COc1cc(-c2c[nH]c(N)n2)ccc1NC(=O)c1cc(Cl)cc(Cl)c1.Cl [Compound 6a, N-(4-(2-amino-1H-imidazol-4-yl)-2-methoxyphenyl)-3,5-dichlorobenzamide hydrochloride]",100,16,0.5,64 fold,4,Fold Reduction of CLR MIC (AB5075 [2]; compound tested at 20 μM): 8 fold
"Cc1cc(NC(=O)c2cc(Cl)cc(Cl)c2)ccc1-c1c[nH]c(N)n1.Cl [Compound 6b, N-(4-(2-amino-1H-imidazol-4-yl)-3-methylphenyl)-3,5-dichlorobenzamide hydrochloride]",> 200,8,0.5,64 fold,0.5,Fold Reduction of CLR MIC (AB5075 [2]; compound tested at 20 μM): 64 fold
"Cc1cc(-c2c[nH]c(N)n2)ccc1NC(=O)c1cc(Cl)cc(Cl)c1.Cl [Compound 10a, N-(4-(2-amino-1H-imidazol-4-yl)-2-methylphenyl)-3,5-dichlorobenzamide hydrochloride]",> 200,16,0.5,64 fold,1,Fold Reduction of CLR MIC (AB5075 [2]; compound tested at 20 μM): 32 fold
"Cl.Nc1nc(-c2ccc(NC(=O)c3cc(Cl)cc(Cl)c3)c(Cl)c2)c[nH]1 [Compound 10b, N-(4-(2-amino-1H-imidazol-4-yl)-2-chlorophenyl)-3,5-dichlorobenzamide hydrochloride]",> 200,,16,,,
"Cl.Nc1nc(-c2ccc(NC(=O)c3cc(Cl)cc(Cl)c3)c(F)c2)c[nH]1 [Compound 10c, N-(4-(2-amino-1H-imidazol-4-yl)-2-fluorophenyl)-3,5-dichlorobenzamide hydrochloride]",> 200,,8,,,
"Cl.Nc1nc(-c2ccc(NC(=O)c3cc(Cl)cc(Cl)c3)cc2F)c[nH]1 [Compound 10d, N-(4-(2-amino-1H-imidazol-4-yl)-3-fluorophenyl)-3,5-dichlorobenzamide hydrochloride]",> 200,0.5,,,0.25,"CLR MIC (AB5075 [2]; compound tested at 5 μM): 8 µg/mL; Fold Reduction of CLR MIC (AB5075 [2]; compound tested at 5 μM): 4 fold; CLR MIC (AB5075 [2]; compound tested at 7.5 μM): 4 µg/mL; Fold Reduction of CLR MIC (AB5075 [2]; compound tested at 10 μM): 64 fold; Fold Reduction of CLR MIC (AB5075 [2]; compound tested at 20 μM): 128 fold; CLR MIC (AB5075 [2]; compound tested at 30 μM, hydrochloride): 0.25 µg/mL"
"Cl.Nc1nc(-c2c(F)cc(NC(=O)c3cc(Cl)cc(Cl)c3)cc2F)c[nH]1 [Compound 13, N-(4-(2-amino-1H-imidazol-4-yl)-3,5-difluorophenyl)-3,5-dichlorobenzamide hydrochloride]",,,4,,8,Fold Reduction of CLR MIC (AB5075 [2]; compound tested at 10 μM): two-fold
Nc1nc(-c2cccc(NC(=O)c3cc(F)cc(F)c3)c2)c[nH]1 [Compound 18],,,,,,"adjuvant activity (CLR potentiation), rank by amide linker position (AB5075 [2]): 4k (highest adjuvant activity) >meta amide linker 18>ortho amide linker 19"
Nc1nc(-c2ccccc2NC(=O)c2cc(F)cc(F)c2)c[nH]1 [Compound 19],,,,,,"adjuvant activity (CLR potentiation), rank by amide linker position (AB5075 [2]): lowest adjuvant activity"
